Experimental data published in the supplement of paper PMC10307832.

Key:
Assay in all cases: relative viability (nuclei count vs DMSO), 5 days (fraction); higher = more cells survive
Alisertib + Bortezomib = compound: COc1cc(Nc2ncc3c(n2)-c2ccc(Cl)cc2C(c2c(F)cccc2OC)=NC3)ccc1C(=O)O [Alisertib] + CC(C)C[C@H](NC(=O)[C@H](Cc1ccccc1)NC(=O)c1cnccn1)B(O)O [Bortezomib] (partner 0.002 µM)
Outline: (§1)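 Nuclei were stained with Hoechst during a one-step fixation (final 0.05% Triton X-100, 1% formaldehyde, 1 ug/ml Hoechst) carried out 5 days after dosing, then counted on 4× images. The cells, lung cancer lines in 1536-well plates, had been dosed by pin tool the day after seeding with one drug alone or a fixed anchor-drug dose plus five library-drug doses (not always all listed) in √10 steps. Relative viability is the nuclei count in treated wells divided by that in vehicle wells, and each value is the median of duplicate plates.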

Alisertib + Navitoclax = compound: COc1cc(Nc2ncc3c(n2)-c2ccc(Cl)cc2C(c2c(F)cccc2OC)=NC3)ccc1C(=O)O [Alisertib] + CC1(C)CCC(c2ccc(Cl)cc2)=C(CN2CCN(c3ccc(C(=O)NS(=O)(=O)c4ccc(N[C@H](CCN5CCOCC5)CSc5ccccc5)c(S(=O)(=O)C(F)(F)F)c4)cc3)CC2)C1 [Navitoclax] (partner 0.5 µM)
Outline: as §1

Alisertib + Luminespib = compound: COc1cc(Nc2ncc3c(n2)-c2ccc(Cl)cc2C(c2c(F)cccc2OC)=NC3)ccc1C(=O)O [Alisertib] + CCNC(=O)c1noc(-c2cc(C(C)C)c(O)cc2O)c1-c1ccc(CN2CCOCC2)cc1 [Luminespib] (partner 0.01 µM)
Outline: as §1

Alisertib + Dasatinib = compound: COc1cc(Nc2ncc3c(n2)-c2ccc(Cl)cc2C(c2c(F)cccc2OC)=NC3)ccc1C(=O)O [Alisertib] + Cc1nc(Nc2ncc(C(=O)Nc3c(C)cccc3Cl)s2)cc(N2CCN(CCO)CC2)n1 [Dasatinib] (partner 0.075 µM)
Outline: as §1

| Cell Line | relative viability (Alisertib + Bortezomib; first compound 0.005 µM) | relative viability (Alisertib + Bortezomib; first compound 0.01581 µM) | relative viability (Alisertib + Bortezomib; first compound 0.05 µM) | relative viability (Alisertib + Bortezomib; first compound 0.1581 µM) | relative viability (Alisertib + Bortezomib; first compound 0.5 µM) | relative viability (Alisertib + Navitoclax; first compound 0.005 µM) | relative viability (Alisertib + Navitoclax; first compound 0.01581 µM) | relative viability (Alisertib + Navitoclax; first compound 0.05 µM) | relative viability (Alisertib + Navitoclax; first compound 0.1581 µM) | relative viability (Alisertib + Navitoclax; first compound 0.5 µM) | relative viability (Alisertib + Luminespib; first compound 0.005 µM) | relative viability (Alisertib + Luminespib; first compound 0.01581 µM) | relative viability (Alisertib + Luminespib; first compound 0.05 µM) | relative viability (Alisertib + Luminespib; first compound 0.1581 µM) | relative viability (Alisertib + Luminespib; first compound 0.5 µM) | relative viability (Alisertib + Dasatinib; first compound 0.005 µM) | relative viability (Alisertib + Dasatinib; first compound 0.01581 µM) | relative viability (Alisertib + Dasatinib; first compound 0.05 µM) | relative viability (Alisertib + Dasatinib; first compound 0.1581 µM) | relative viability (Alisertib + Dasatinib; first compound 0.5 µM) |
| --- | --- | --- | --- | --- | --- | --- | --- | --- | --- | --- | --- | --- | --- | --- | --- | --- | --- | --- | --- | --- |
| HARA | 1.06 | 1.11 | 0.651 | 0.191 | 0.108 | 1.15 | 1.14 | 0.544 | 0.281 | 0.0564 | 0.682 | 0.428 | 0.209 | 0.0919 | 0.0942 | 0.265 | 0.283 | 0.279 | 0.125 | 0.0962 |
| HCC-44 | 0.95 | 0.827 | 0.664 | 0.28 | 0.15 | 1.04 | 0.949 | 0.509 | 0.412 | 0.14 | 0.91 | 0.667 | 0.355 | 0.18 | 0.176 | – | – | – | – | – |
| HCC-78 | 0.522 | 0.272 | 0.24 | 0.19 | 0.175 | 0.681 | 0.514 | 0.176 | 0.131 | 0.131 | – | – | – | – | – | 0.379 | 0.369 | 0.177 | 0.171 | 0.188 |
| HCC-366 | 1.04 | 0.345 | 0.0201 | 0.0154 | 0.0255 | 0.976 | 1.04 | 0.094 | 0.0103 | 0.019 | – | – | – | – | – | 0.674 | 0.353 | 0.0282 | 0.0222 | 0.0468 |
| IA-LM | 0.635 | 0.578 | 0.465 | 0.195 | 0.0832 | 0.654 | 0.59 | 0.313 | 0.164 | 0.0604 | – | – | – | – | – | – | – | – | – | – |
| LCLC-103H | 1.19 | 1.01 | 1.09 | 0.262 | 0.3 | – | – | – | – | – | 0.949 | 0.883 | 0.278 | 0.311 | 0.269 | 0.455 | 0.509 | 0.423 | 0.26 | 0.158 |
| LK-2 | – | – | – | – | – | 0.859 | 0.722 | 0.356 | 0.181 | 0.225 | 0.19 | 0.165 | 0.184 | 0.18 | 0.187 | 0.353 | 0.267 | 0.212 | 0.192 | 0.153 |
| NCI-H358 | – | – | – | – | – | – | – | – | – | – | 0.321 | 0.243 | 0.133 | 0.114 | 0.105 | 0.168 | 0.176 | 0.114 | 0.0896 | 0.0837 |
| NCI-H650 | 0.568 | 0.619 | 0.25 | 0.265 | 0.22 | – | – | – | – | – | 0.685 | 0.579 | 0.239 | 0.126 | 0.198 | 0.429 | 0.479 | 0.21 | 0.194 | 0.169 |
| NCI-H661 | 0.845 | 0.557 | 0.521 | 0.304 | 0.297 | – | – | – | – | – | 0.94 | 0.875 | 0.611 | 0.377 | 0.296 | 0.57 | 0.675 | 0.416 | 0.258 | 0.297 |
| NCI-H1299 | 0.995 | 0.983 | 0.674 | 0.457 | 0.286 | 1.03 | 1.01 | 0.801 | 0.395 | 0.204 | – | – | – | – | – | – | – | – | – | – |
| NCI-H1395 | – | – | – | – | – | 1.12 | 1.12 | 0.935 | 0.459 | 0.471 | 0.78 | 0.561 | 0.566 | 0.342 | 0.343 | 0.384 | 0.376 | 0.451 | 0.329 | 0.296 |
| NCI-H1563 | 0.835 | 0.817 | 0.833 | 0.858 | 0.604 | – | – | – | – | – | 0.509 | 0.54 | 0.483 | 0.295 | 0.413 | 0.441 | 0.544 | 0.442 | 0.414 | 0.387 |
| NCI-H1703 | 0.337 | 0.287 | 0.134 | 0.147 | 0.102 | 1.2 | 0.837 | 0.317 | 0.156 | 0.126 | – | – | – | – | – | – | – | – | – | – |
| NCI-H1793 | – | – | – | – | – | 0.428 | 0.339 | 0.247 | 0.17 | 0.148 | 0.171 | 0.147 | 0.156 | 0.127 | 0.136 | 0.397 | 0.242 | 0.186 | 0.11 | 0.116 |
| NCI-H1944 | – | – | – | – | – | 1.06 | 1.01 | 0.969 | 0.415 | 0.194 | 0.778 | 0.676 | 0.541 | 0.411 | 0.15 | 0.196 | 0.217 | 0.218 | 0.113 | 0.113 |
| NCI-H2170 | – | – | – | – | – | 0.564 | 0.55 | 0.238 | 0.232 | 0.178 | 0.518 | 0.777 | 0.317 | 0.318 | 0.207 | 0.443 | 0.561 | 0.403 | 0.225 | 0.167 |
| NCI-H2342 | – | – | – | – | – | – | – | – | – | – | 0.646 | 0.662 | 0.555 | 0.447 | 0.368 | 0.291 | 0.348 | 0.266 | 0.268 | 0.276 |
| SK-MES-1 | – | – | – | – | – | 1.09 | 0.892 | 0.315 | 0.139 | 0.0931 | 0.723 | 0.4 | 0.273 | 0.144 | 0.17 | 0.354 | 0.466 | 0.253 | 0.125 | 0.074 |
